# Measurements: ChEMBL document CHEMBL5291721, “A preclinical secondary pharmacology resource illuminates target-adverse drug reaction associations of marketed drugs” (Nat Commun, 2023)
# How the values were obtained:
# Vasopressin V1a receptor = Vasopressin V1a receptor (Homo sapiens, UniProt P37288)
# Adenosine receptor A2a = Adenosine receptor A2a (Homo sapiens, UniProt P29274)
# [1] = molecular target: T1, Prostaglandin G/H synthase 1 (Rattus norvegicus, UniProt Q63921); type: functional
# T1 sequence (Q63921 whole entry): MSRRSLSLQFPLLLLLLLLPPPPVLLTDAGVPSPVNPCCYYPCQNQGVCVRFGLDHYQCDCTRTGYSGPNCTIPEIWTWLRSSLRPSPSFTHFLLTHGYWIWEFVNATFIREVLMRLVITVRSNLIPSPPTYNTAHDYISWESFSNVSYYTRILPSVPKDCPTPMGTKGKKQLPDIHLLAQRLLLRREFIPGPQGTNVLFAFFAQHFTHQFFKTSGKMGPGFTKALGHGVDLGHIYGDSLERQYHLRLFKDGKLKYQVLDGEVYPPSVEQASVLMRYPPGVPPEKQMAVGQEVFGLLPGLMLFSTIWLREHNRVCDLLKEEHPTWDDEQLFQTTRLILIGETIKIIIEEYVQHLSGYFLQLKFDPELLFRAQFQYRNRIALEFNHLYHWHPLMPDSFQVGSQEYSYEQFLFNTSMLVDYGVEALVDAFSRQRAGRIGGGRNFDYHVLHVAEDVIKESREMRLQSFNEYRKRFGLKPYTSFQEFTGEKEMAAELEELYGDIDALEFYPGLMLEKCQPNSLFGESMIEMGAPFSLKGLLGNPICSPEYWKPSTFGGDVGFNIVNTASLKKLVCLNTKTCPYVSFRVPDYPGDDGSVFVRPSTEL
# [2] = molecular target: T2, Type-1 angiotensin II receptor (Homo sapiens, UniProt P30556)
# T2 sequence (P30556 whole entry): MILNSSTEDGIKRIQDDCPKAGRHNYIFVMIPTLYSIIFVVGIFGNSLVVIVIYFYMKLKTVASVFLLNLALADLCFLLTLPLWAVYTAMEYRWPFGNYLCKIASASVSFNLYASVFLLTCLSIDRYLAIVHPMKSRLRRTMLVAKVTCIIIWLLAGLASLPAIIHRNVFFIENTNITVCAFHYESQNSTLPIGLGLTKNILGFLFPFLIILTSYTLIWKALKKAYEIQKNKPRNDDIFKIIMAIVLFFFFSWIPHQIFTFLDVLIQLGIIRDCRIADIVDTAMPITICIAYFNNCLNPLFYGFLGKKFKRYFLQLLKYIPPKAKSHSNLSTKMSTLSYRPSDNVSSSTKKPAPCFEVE
# Adenosine receptor A1 = molecular target: T3, Adenosine receptor A1 (Homo sapiens, UniProt P30542)
# T3 sequence (P30542 whole entry): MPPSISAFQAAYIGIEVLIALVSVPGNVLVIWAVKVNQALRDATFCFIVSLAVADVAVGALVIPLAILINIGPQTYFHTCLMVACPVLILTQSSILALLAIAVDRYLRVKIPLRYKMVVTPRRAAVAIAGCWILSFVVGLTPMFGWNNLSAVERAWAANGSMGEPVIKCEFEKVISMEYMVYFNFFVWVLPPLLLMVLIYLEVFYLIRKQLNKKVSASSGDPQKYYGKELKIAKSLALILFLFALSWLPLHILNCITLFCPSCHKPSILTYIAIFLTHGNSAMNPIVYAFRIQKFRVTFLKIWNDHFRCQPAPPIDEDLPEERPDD
# [3] = molecular target: 5-hydroxytryptamine receptor 2B (Homo sapiens, UniProt P41595); type: functional, cell-based
# Mu-type opioid receptor = Mu-type opioid receptor (Homo sapiens, UniProt P35372); assay: biochemical; type: functional
# [4] = molecular target: T4, Alpha-2A adrenergic receptor (Homo sapiens, UniProt P08913); type: functional, cell-based
# T4 sequence (P08913 whole entry): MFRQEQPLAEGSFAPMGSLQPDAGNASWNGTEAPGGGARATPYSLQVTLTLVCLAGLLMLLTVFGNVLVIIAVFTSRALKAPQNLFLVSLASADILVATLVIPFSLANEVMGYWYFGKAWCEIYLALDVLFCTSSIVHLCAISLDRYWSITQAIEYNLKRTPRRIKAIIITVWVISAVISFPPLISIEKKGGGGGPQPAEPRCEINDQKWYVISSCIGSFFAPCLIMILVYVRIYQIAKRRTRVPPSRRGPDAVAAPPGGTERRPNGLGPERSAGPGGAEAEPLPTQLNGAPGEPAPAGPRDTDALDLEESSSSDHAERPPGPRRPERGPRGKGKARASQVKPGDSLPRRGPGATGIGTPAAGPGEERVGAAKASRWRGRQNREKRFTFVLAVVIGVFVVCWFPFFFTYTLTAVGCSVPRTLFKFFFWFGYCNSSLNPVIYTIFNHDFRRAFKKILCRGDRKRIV
# Progesterone receptor = molecular target: T5, Progesterone receptor (Homo sapiens, UniProt P06401); type: functional
# T5 sequence (P06401 whole entry): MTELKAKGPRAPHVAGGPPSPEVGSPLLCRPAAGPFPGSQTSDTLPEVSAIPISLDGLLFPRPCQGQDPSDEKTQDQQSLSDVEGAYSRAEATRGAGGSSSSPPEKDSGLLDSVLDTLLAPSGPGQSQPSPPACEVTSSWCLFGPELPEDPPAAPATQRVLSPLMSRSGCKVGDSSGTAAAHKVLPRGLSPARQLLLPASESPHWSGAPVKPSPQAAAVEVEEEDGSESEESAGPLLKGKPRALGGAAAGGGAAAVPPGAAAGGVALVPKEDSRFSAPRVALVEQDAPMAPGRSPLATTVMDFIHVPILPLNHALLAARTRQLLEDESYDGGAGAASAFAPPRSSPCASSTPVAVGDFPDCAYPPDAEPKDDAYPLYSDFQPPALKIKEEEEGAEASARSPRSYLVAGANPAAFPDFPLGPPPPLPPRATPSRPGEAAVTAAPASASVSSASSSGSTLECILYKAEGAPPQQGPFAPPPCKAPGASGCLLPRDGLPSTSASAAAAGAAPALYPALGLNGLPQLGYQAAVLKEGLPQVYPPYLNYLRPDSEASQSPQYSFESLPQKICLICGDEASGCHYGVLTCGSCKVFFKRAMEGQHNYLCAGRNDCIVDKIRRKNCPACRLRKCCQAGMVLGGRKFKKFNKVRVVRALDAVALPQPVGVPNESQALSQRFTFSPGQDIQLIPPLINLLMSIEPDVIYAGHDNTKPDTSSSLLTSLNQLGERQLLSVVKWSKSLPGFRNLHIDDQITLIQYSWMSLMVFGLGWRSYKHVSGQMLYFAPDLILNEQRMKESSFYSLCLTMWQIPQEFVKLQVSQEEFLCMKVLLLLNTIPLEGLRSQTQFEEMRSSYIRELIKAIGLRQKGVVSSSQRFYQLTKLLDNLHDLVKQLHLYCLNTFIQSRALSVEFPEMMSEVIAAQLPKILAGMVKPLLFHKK
# Also: assay procedure not described here.
# Mu-type opioid receptor, sequence (P35372 whole entry): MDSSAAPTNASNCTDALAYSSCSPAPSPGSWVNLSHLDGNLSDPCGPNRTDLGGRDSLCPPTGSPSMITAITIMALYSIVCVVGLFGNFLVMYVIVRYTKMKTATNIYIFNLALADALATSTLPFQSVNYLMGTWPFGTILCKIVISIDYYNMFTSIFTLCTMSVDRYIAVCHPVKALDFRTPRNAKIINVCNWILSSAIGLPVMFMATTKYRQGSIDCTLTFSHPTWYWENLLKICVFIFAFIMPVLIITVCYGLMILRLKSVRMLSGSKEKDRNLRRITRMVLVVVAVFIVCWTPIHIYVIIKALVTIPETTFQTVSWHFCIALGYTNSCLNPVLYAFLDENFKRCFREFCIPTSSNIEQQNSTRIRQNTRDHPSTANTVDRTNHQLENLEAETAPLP
# 5-hydroxytryptamine receptor 2B, sequence (P41595 whole entry): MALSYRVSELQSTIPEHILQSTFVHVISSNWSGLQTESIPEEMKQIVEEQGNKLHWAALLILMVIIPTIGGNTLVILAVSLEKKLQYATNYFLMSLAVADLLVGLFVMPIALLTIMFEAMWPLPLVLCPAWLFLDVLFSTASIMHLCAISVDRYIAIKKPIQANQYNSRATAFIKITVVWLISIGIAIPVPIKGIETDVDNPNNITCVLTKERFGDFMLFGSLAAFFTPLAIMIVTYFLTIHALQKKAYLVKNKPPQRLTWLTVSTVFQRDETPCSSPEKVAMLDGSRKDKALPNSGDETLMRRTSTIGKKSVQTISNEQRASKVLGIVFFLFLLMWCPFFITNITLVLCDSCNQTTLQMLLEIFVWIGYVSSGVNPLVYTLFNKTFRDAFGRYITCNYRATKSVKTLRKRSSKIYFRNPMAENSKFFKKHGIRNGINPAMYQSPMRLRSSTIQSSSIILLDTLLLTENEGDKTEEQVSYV
# Vasopressin V1a receptor, sequence (P37288 whole entry): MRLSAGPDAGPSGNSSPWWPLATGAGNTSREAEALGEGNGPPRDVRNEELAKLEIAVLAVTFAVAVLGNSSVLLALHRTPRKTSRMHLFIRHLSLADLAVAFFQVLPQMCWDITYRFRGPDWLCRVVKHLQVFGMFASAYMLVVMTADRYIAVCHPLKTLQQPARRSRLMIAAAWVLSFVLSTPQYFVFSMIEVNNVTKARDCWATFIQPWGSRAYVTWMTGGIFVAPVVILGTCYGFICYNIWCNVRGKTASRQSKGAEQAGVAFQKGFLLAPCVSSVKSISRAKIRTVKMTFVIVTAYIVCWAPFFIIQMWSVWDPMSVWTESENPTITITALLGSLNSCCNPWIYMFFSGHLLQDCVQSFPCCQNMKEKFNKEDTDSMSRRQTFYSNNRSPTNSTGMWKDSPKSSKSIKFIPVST
# Adenosine receptor A2a, sequence (P29274 whole entry): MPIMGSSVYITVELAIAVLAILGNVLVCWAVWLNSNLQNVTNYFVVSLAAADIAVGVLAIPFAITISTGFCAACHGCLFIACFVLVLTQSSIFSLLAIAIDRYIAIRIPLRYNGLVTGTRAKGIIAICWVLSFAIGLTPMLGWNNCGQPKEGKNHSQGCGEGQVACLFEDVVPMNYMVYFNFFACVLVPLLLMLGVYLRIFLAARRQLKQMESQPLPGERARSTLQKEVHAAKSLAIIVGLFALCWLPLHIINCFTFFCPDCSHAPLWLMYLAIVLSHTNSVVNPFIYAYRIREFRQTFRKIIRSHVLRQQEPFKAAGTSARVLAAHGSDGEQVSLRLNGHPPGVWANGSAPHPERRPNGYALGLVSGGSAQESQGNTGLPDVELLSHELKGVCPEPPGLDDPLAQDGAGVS
compound,measurement,setting,value
CC/C=C\C/C=C\C/C=C\CCCCCCCC(=O)O [LINOLENIC ACID],AC50,Vasopressin V1a receptor,> 30 µM
same,AC50,Adenosine receptor A2a,> 30 µM
same,AC50,[1],6.3 µM
same,AC50,[2],> 30 µM
same,AC50,Adenosine receptor A1,> 30 µM
same,AC50,[3],> 30 µM
same,AC50,Mu-type opioid receptor,> 30 µM
same,AC50,[4],> 30 µM
C#C[C@]1(O)CC[C@H]2[C@@H]3CCC4=CCCC[C@@H]4[C@H]3CC[C@@]21C [LYNESTRENOL],AC50,Vasopressin V1a receptor,> 30 µM
same,AC50,Adenosine receptor A2a,> 30 µM
same,AC50,[1],> 30 µM
same,AC50,[2],> 30 µM
same,AC50,Adenosine receptor A1,> 30 µM
same,AC50,[3],> 30 µM
same,AC50,Mu-type opioid receptor,> 30 µM
same,AC50,[4],> 30 µM
C[C@]12CCC(=O)C=C1CC[C@@H]1[C@@H]2CC[C@@]2(C)[C@H]1CC[C@]2(C)O [METHYLTESTOSTERONE],AC50,Adenosine receptor A2a,> 30 µM
same,AC50,[1],> 30 µM
same,AC50,[2],> 30 µM
same,AC50,Adenosine receptor A1,> 30 µM
same,AC50,[3],> 30 µM
same,AC50,Mu-type opioid receptor,> 30 µM
same,AC50,[4],> 30 µM
COc1c(C)c2c(c(O)c1C/C=C(\C)CCC(=O)OCCN1CCOCC1)C(=O)OC2 [MYCOPHENOLATE MOFETIL],AC50,Adenosine receptor A2a,> 30 µM
same,AC50,Progesterone receptor,> 30 µM
same,AC50,[2],> 30 µM
same,AC50,Adenosine receptor A1,> 30 µM
same,AC50,[3],> 30 µM
same,AC50,Mu-type opioid receptor,> 30 µM
same,AC50,[4],> 30 µM
CN1CCC2=C(C1)C(c1ccccc1)c1ccccc12 (stereo not drawn) [PHENINDAMINE],AC50,Vasopressin V1a receptor,> 10 µM
same,AC50,Adenosine receptor A2a,> 10 µM
same,AC50,[1],0.771 µM
same,AC50,Progesterone receptor,> 30 µM
same,AC50,[2],> 10 µM
same,AC50,Adenosine receptor A1,> 10 µM
same,AC50,[3],> 10 µM
same,AC50,[4],> 10 µM
CN1C(=O)CC(c2ccccc2)C1=O (stereo not drawn) [PHENSUXIMIDE],AC50,Vasopressin V1a receptor,> 10 µM
same,AC50,Adenosine receptor A2a,> 10 µM
same,AC50,[1],> 10 µM
same,AC50,Progesterone receptor,> 10 µM
same,AC50,[2],> 10 µM
same,AC50,Adenosine receptor A1,> 10 µM
same,AC50,[3],> 10 µM
same,AC50,[4],> 10 µM
O=C(O)CCCc1ccccc1 [PHENYLBUTANOIC ACID],AC50,Vasopressin V1a receptor,> 30 µM
same,AC50,Adenosine receptor A2a,> 10 µM
same,AC50,[1],> 30 µM
same,AC50,[2],> 10 µM
same,AC50,Adenosine receptor A1,> 10 µM
same,AC50,[3],> 30 µM
same,AC50,Mu-type opioid receptor,> 30 µM
same,AC50,[4],> 30 µM
CC(=O)NS(=O)(=O)c1ccc(N)cc1 [SULFACETAMIDE],AC50,Vasopressin V1a receptor,> 10 µM
same,AC50,Adenosine receptor A2a,> 10 µM
same,AC50,[1],> 10 µM
same,AC50,Progesterone receptor,> 10 µM
same,AC50,[2],> 10 µM
same,AC50,Adenosine receptor A1,> 10 µM
same,AC50,[3],> 10 µM
same,AC50,[4],> 10 µM
COc1ccc(C(=O)N2CCN(c3ccc4c(c3)CCC(=O)N4)CC2)cc1OC [VESNARINONE],AC50,Vasopressin V1a receptor,> 30 µM
same,AC50,Adenosine receptor A2a,> 30 µM
same,AC50,[1],> 30 µM
same,AC50,[2],> 30 µM
same,AC50,Adenosine receptor A1,> 30 µM
same,AC50,[3],> 30 µM
same,AC50,Mu-type opioid receptor,> 30 µM
same,AC50,[4],> 30 µM
CN1CCN(C(=O)OC2c3nccnc3C(=O)N2c2ccc(Cl)cn2)CC1 (stereo not drawn) [ZOPICLONE],AC50,Vasopressin V1a receptor,> 30 µM
same,AC50,Adenosine receptor A2a,> 30 µM
same,AC50,[1],> 30 µM
same,AC50,Progesterone receptor,> 30 µM
same,AC50,[2],> 30 µM
same,AC50,Adenosine receptor A1,> 30 µM
same,AC50,[3],> 10 µM
same,AC50,[4],> 10 µM
